According to patent US20240041976A1, “COMPOSITION AND USE” (priority 2020, published 2024):

How the values were obtained:
S. haemoliticus NVH 409 = test: organism not typed; assay type: cell-based; details: S. haemoliticus NVH 409; read-out: MIC, single antimicrobial
Description: (§1) Antimicrobial activity was measured using the AAMP assay (Wiegand et al., 2008, Nat. Protoc., Vol. 3(2), p 163-175).
(§2) Synergy testing was done with a microtiter plate checkerboard assay as previously described (Orhan et al., 2005, J. Clin. Microbiol., Vol. 43(1), p 140-143). Briefly, equal amounts of antimicrobial A were applied on microtiter plate 1 in wells A1-H1 and then diluted two-fold to wells 2-12. Similarly, equal amounts of antimicrobial B were applied on microtiter plate 2 in wells A1-A12 and diluted two-fold in wells B-H. Volumes of 50 μl of antimicrobial A from each well of microtiter plate 1 were transferred into microtiter plate 3, except for wells H1-H12. Similarly, the same volumes were transferred from microtiter plate 2 into plate 3, except for wells A1-A8. A 100 μl volume of 25 times diluted ON bacterial culture of MRSA was transferred into each well of plate 3. A 50 μl volume of pure broth was added into each well in lines H1-H12 and A1-A8 which were used to estimate MIC values of pure substances (blank).
(§3) Antimicrobial activity was measured using the AAMP assay as described in Example 2.
(§4) Synergy testing was performed as in Example 2.

[1] = system: three MRSA strains (ATCC33591-lux, USA-300 and MRSA 43484); test: AAMP assay and checkerboard synergy, summary; assay type: cell-based, Staphylococcus aureus
Description: as §2, with “Briefly,” for “Synergy testing was done with a microtiter plate checkerboard assay as previously described (Orhan et al., 2005, J. Clin. Microbiol., Vol. 43(1), p 140-143). Briefly,”, “A 100 μl volume of 25 times diluted ON bacterial culture of MRSA was transferred into each well of plate 3.” left out
(§5) Three-component synergy was assessed by mixing the three components (100 μg of PenG, 50 μg of GarKS and 2.5 μg of MP1) into one well of a microtiter plate, compared with activity of individual antimicrobials on the same plate.

MRSA 43484 = test: AAMP assay and checkerboard synergy; assay type: cell-based, Staphylococcus aureus; details: MRSA 43484; for MIC: Staphylococcus aureus, 24 h, read-out: MIC, single antimicrobial
Description: as §1, §2
as §5, with “plate. The fractional inhibition concentration (FIC) which was used to define synergy was calculated as set forth in Example 1.” for “plate.”

MRSA ATCC 33591-lux = test: AAMP assay and checkerboard synergy; assay type: cell-based, Staphylococcus aureus; details: MRSA ATCC 33591-lux
Description: as §1, §2
as §5, with “plate. The fractional inhibition concentration (FIC) which was used to define synergy was calculated as set forth in Example 1.” for “plate.”

MRSA USA-300 = test: AAMP assay and checkerboard synergy; assay type: cell-based, Staphylococcus aureus; details: MRSA USA-300; for MIC: Staphylococcus aureus, 24 h, read-out: MIC, single antimicrobial
Description: as §1, §2
as §5, with “plate. The fractional inhibition concentration (FIC) which was used to define synergy was calculated as set forth in Example 1.” for “plate.”

E. faecalis 3351 = test: microbe, parasite or virus in culture; assay type: cell-based, Enterococcus faecalis; details: Enterococcus faecalis; E. faecalis 3351; read-out: MIC, single antimicrobial
Description: as §1, §2, §3, §4

E.faecalis 3689 = test: microbe, parasite or virus in culture; assay type: cell-based, Enterococcus faecalis; details: Enterococcus faecalis; E.faecalis 3689; read-out: MIC, single antimicrobial
Description: as §1, §2, §3, §4

S. aureus ATTC 10832 = test: Planktonic cell growth inhibition assay (MIC50, liquid culture); assay type: cell-based, Staphylococcus aureus; details: for MIC50: Staphylococcus aureus, ATTC10832, individual component, read-out: MIC50
Description: (§6) Growth inhibition assays were performed in 96-well microtiter plates as described previously (Chi and Holo, 2018, supra). Briefly, 135 μl of TSB were dispensed in each well of a microtiter plate (according to the number of bacterial strains tested) except in the wells of the first row. The antimicrobials were diluted in TSB to working concentrations in a final volume of 285 μl and dispensed in the wells of the first row. The working concentrations were 100 μg/μl for garvicin KS, 10 μg/μl for micrococcin P1 and 1 mg/ml for penicillin G. From the first row, 150 μl of the antimicrobials were then serially diluted (two-fold dilutions) in a sequential fashion until the last row of the plate. Finally, 15 μl of a fresh O/N culture of each strain were added in the appropriate wells to reach a final volume of 150 μl in each well. The plates were then incubated at 37° C. for 24 h. The growth inhibition was expressed as minimum inhibitory concentration (MIC50), which refers to the minimum concentration of the antimicrobial needed to reduce at least 50% of the microbial growth compared to the untreated control. The MIC50 was assessed by optical density readings at 600 nm (O.D.600).
(§7) Synergistic interactions between antimicrobials were determined using the fractional inhibition concentration (FIC). The FIC values were calculated as follows: the sum of the FIC =FICa+FICb+FICc, where the FICa means MIC of A in combination/MIC of A alone, FICb means MIC of B in combination/MIC of B, and FICc means MIC of C in combination/MIC of C alone. Effects were considered as synergistic if FIC was ≤0.5 for two components mixture and ≤0.75 for three components mixture.

S.a. 3255 = test: as above; assay type: cell-based, Staphylococcus aureus; details: for MIC50: Staphylococcus aureus, individual component, read-out: MIC50
Description: as §6, §7

S. aureus biofilms = test: BOAT followed by CFU counting; assay type: cell-based, Staphylococcus aureus; details: 5 mg/ml garvicin KS, 0.1 mg/ml micrococcin P1, 10 mg/ml penicillin G
Description: The procedure for the BOAT assay was repeated as described above except that instead of adding the TTC solution, the antimicrobial-challenged cells were resuspended in TSB and then serially diluted in TSB buffer. Serial dilutions of the bacterial cells were than plated on BHI agar plates and incubated at 37° C. for 24 h. The results were then assessed by direct counting of the developed colonies and the colony forming unit (CFU) was determined.

[2] = triple combination PenG, GarKS and MP1
[3] = garvicin KS + micrococcin P1 + penicillin G

## C/C=C(\NC(=O)c1csc(-c2csc(-c3ccc4c(n3)-c3csc(n3)[C@H]([C@@H](C)O)NC(=O)c3csc(n3)[C@H](C(C)C)NC(=O)c3csc(n3)/C(=C/C)NC(=O)[C@H]([C@@H](C)O)NC(=O)c3csc-4n3)n2)n1)C(=O)NC[C@@H](C)O [MP1, micrococcin P1]
S. haemoliticus NVH 409
  MIC: 1.25 µg/mL
[1]; All three strains
  MIC of the antimicrobial in comb. with GarKS: 0.16 µg/mL
[1]; MP1 with PenG
  MIC of the component when combined: 0.16 to 0.3 µg/mL
  reduction of MIC when combined: 8-16 times
[1]; checkerboard assay
  MIC of the component when GarKS and MP1 are combined: 0.16 µg/mL
[1]; [2]
  MIC of the component when combined: 0.08 µg/mL
  reduction of MIC when combined: about 30 times
MRSA 43484
  MIC of the antimicrobial in comb. with GarKS: 0.16 µg/mL
  MIC: 2.5 µg/mL
MRSA ATCC 33591-lux
  MIC of the antimicrobial in comb. with GarKS: 0.16 µg/mL
MRSA USA-300
  MIC of the antimicrobial in comb. with GarKS: 0.16 µg/mL
  MIC: 2.5 µg/mL
E. faecalis 3351
  MIC: > 45 µg/mL
E.faecalis 3689
  MIC: > 45 µg/mL
S. aureus ATTC 10832
  MIC50: 0.63 µg/mL
S. aureus ATTC 10832; garvicin KS + micrococcin P1
  MIC50 of the component in combination: 0.63 µg/mL
S. aureus ATTC 10832; [3]
  MIC50 of the component in combination: <0.078 µg/mL
S.a. 3255
  MIC50: 10 µg/mL
S.a. 3255; garvicin KS + micrococcin P1
  MIC50 of the component in combination: 1.3 µg/mL
S.a. 3255; [3]
  MIC50 of the component in combination: <0.078 µg/mL

## CC1(C)S[C@@H]2[C@H](NC(=O)Cc3ccccc3)C(=O)N2[C@H]1C(=O)O [Penicillin G]
[1]; All three strains
  MIC of GarKS in comb. antibiotic/GarKS/MP1: 4 µg/mL
  MIC of MP1 in comb. antibiotic/GarKS/MP1: 0.08 µg/mL
  MIC of MP1 in comb. with the labelled antibiotic: 0.16 to 0.3 µg/mL
  MIC of the antibiotic in comb. with GarKS and MP1: 8 µg/mL
  MIC of the antibiotic in comb. with MP1: 16 to 32 µg/mL
  MIC of the antimicrobial in comb. with GarKS: 16 µg/mL
[1]; GarKS with Amp or PenG
  MIC of the component when combined: 16 µg/mL
[1]; MP1 with PenG
  MIC of the component when combined: 16 to 32 µg/mL
  reduction of MIC when combined: 80-150 times
[1]; Staphylococcus aureus, 24 h, All three strains, read-out: MIC, single antimicrobial
  MIC: > 2500 µg/mL
[1]; checkerboard assay
  synergy with GarKS: moderate synergy
[1]; [2]
  MIC of the component when combined: 8 µg/mL
  reduction of MIC when combined: more than 300 times
MRSA 43484
  MIC of GarKS in comb. antibiotic/GarKS/MP1: 4 µg/mL
  MIC of MP1 in comb. antibiotic/GarKS/MP1: 0.08 µg/mL
  MIC of MP1 in comb. with the labelled antibiotic: 0.3 µg/mL
  MIC of the antibiotic in comb. with GarKS and MP1: 8 µg/mL
  MIC of the antibiotic in comb. with MP1: 32 µg/mL
  MIC of the antimicrobial in comb. with GarKS: 16 µg/mL
  MIC: < 2500 µg/mL
MRSA ATCC 33591-lux
  MIC of GarKS in comb. antibiotic/GarKS/MP1: 4 µg/mL
  MIC of MP1 in comb. antibiotic/GarKS/MP1: 0.08 µg/mL
  MIC of MP1 in comb. with the labelled antibiotic: 0.16 µg/mL
  MIC of the antibiotic in comb. with GarKS and MP1: 8 µg/mL
  MIC of the antibiotic in comb. with MP1: 16 µg/mL
  MIC of the antimicrobial in comb. with GarKS: 16 µg/mL
MRSA ATCC 33591-lux; Staphylococcus aureus, 24 h, read-out: MIC, single antimicrobial
  MIC: < 2500 µg/mL
MRSA USA-300
  MIC of GarKS in comb. antibiotic/GarKS/MP1: 4 µg/mL
  MIC of MP1 in comb. antibiotic/GarKS/MP1: 0.08 µg/mL
  MIC of MP1 in comb. with the labelled antibiotic: 0.3 µg/mL
  MIC of the antibiotic in comb. with GarKS and MP1: 8 µg/mL
  MIC of the antibiotic in comb. with MP1: 32 µg/mL
  MIC of the antimicrobial in comb. with GarKS: 16 µg/mL
  MIC: < 2500 µg/mL
S. aureus ATTC 10832
  MIC50: < 7.8 µg/mL
S. aureus ATTC 10832; [3]
  MIC50 of the component in combination: <7.8 µg/mL
S. aureus ATTC 10832; garvicin KS + penicillin G
  MIC50 of the component in combination: <7.8 µg/mL
S.a. 3255
  MIC50: < 7.8 µg/mL
S.a. 3255; [3]
  MIC50 of the component in combination: <7.8 µg/mL
S.a. 3255; garvicin KS + penicillin G
  MIC50 of the component in combination: <7.8 µg/mL
S. aureus biofilms
  cell viability, LogCFU after BOAT: reduction in the viability of the non-MRSA strains
